Measured values reported in patent US20210253557A1, “SUBSTITUTED TRIAZOLE DERIVATIVES AND USES THEREOF” (Bayer Pharma Aktiengesellschaft, priority 2017, published 2021).

Assays:
human V1a receptor = target: T1, human V1a receptor (Homo sapiens, UniProt P37288); test: Cellular in vitro assay for determining vasopressin receptor activity (V1a, aequorin luminescence); format: cell-based; conditions: for IC50: CHO cell line transfected with the human V1a receptor, [Arg8]-vasopressin at EC50 concentration, read-out: IC50 hV1a; for ratio IC50 hV2/hV1a: selectivity ratio of IC50 hV2 to IC50 hV1a
T1 construct: expressed in transfected cells; host or cells: CHO K1 (ATCC), also stably transfected with a modified aequorin
T1 sequence (P37288 whole entry): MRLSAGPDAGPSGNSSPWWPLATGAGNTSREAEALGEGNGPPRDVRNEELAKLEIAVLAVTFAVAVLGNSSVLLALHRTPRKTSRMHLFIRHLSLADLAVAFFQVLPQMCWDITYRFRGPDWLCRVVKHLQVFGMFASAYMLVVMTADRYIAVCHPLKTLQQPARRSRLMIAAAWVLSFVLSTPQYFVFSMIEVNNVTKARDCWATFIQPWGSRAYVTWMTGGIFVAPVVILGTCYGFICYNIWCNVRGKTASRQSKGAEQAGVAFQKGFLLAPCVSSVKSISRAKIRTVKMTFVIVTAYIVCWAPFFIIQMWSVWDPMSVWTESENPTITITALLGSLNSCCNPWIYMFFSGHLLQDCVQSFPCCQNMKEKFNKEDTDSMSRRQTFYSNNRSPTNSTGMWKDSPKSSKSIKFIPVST

human V2 receptor = target: T2, human V2 receptor (Homo sapiens, UniProt P30518); test: Cellular in vitro assay for determining vasopressin receptor activity (V2, CRE-luciferase); format: cell-based; conditions: CHO cell line transfected with the human V2 receptor; [Arg8]-vasopressin at EC50 concentration; read-out: IC50 hV2
T2 construct: expressed in transfected cells; host or cells: CHO K1 (ATCC) expressing firefly luciferase under a CRE-responsive promoter
T2 sequence (P30518 whole entry): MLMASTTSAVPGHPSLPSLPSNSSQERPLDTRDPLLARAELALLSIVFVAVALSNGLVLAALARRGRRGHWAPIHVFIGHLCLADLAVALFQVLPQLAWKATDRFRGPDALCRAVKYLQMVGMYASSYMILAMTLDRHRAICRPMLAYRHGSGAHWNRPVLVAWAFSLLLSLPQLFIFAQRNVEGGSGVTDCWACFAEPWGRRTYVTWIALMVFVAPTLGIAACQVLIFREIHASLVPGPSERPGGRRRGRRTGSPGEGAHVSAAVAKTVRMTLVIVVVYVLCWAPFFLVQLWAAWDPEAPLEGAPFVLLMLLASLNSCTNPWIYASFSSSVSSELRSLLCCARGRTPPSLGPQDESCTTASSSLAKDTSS
How it was run: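 Antagonism was measured as inhibition of a 3-h, EC50-level [Arg8]-vasopressin stimulation, with compounds tested at several concentrations, yielding IC50 values. The read-out was cAMP-driven CRE-luciferase luminescence after lysis, in recombinant CHO K1 cells carrying human V2 receptor. Cells were seeded in 2% FCS DMEM/F12 one day earlier.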

| SMILES | IC50 (human V1a receptor) [nM] | ratio IC50 hV2/hV1a (human V1a receptor) | IC50 (human V2 receptor) [nM] |
| --- | --- | --- | --- |
| NC(=O)OCc1nc(Cn2nc(-c3ccc(Cl)cc3)n(C[C@H](OC(N)=O)C(F)(F)F)c2=O)nn1-c1ccccc1Cl [Example 29, (2S)-3-[1-({5-[(Carbamoyloxy)methyl]-1-(2-chlorophenyl)-1H-1,2,4-triazol-3-yl}methyl)-3-(4-chlorophenyl)-5-oxo-1,5-dihydro-4H-1,2,4-triazol-4-yl]-1,1,1-trifluoropropan-2-yl Carbamate] | 1.29 | 2.3 | 2.93 |
| C[C@H](OC(N)=O)c1nc(Cn2nc(-c3ccc(Cl)cc3)n(C[C@H](O)C(F)(F)F)c2=O)nn1-c1cccc(F)c1 [Example 30, (1S)-1-[3-({3-(4-Chlorophenyl)-5-oxo-4-[(2S)-3,3,3-trifluoro-2-hydroxypropyl]-4,5-dihydro-1H-1,2,4-triazol-1-yl}methyl)-1-(3-fluorophenyl)-1H-1,2,4-triazol-5-yl]ethyl Carbamate] | 36.6 | 0.1 | 3.81 |
| C[C@H](OC(N)=O)c1nc(Cn2nc(-c3ccc(Cl)cc3)n(C[C@H](OC(N)=O)C(F)(F)F)c2=O)nn1-c1ccccc1Cl [Example 34, (2S)-3-[1-({5-[(1S)-1-(Carbamoyloxy)ethyl]-1-(2-chlorophenyl)-1H-1,2,4-triazol-3-yl}methyl)-3-(4-chlorophenyl)-5-oxo-1,5-dihydro-4H-1,2,4-triazol-4-yl]-1,1,1-trifluoropropan-2-yl Carbamate] | 0.64 | 4.3 | 2.75 |
| C[C@H](OC(N)=O)c1nc(Cn2nc(-c3ccc(Cl)cc3)n(C[C@H](O)C(F)(F)F)c2=O)nn1-c1cccc(Cl)c1 [Example 35, (1S)-1-[1-(3-Chlorophenyl)-3-({3-(4-chlorophenyl)-5-oxo-4-[(2S)-3,3,3-trifluoro-2-hydroxypropyl]-4,5-dihydro-1H-1,2,4-triazol-1-yl}methyl)-1H-1,2,4-triazol-5-yl]ethyl Carbamate] | 41.4 |  | 1.99 |

The remaining molecules from weak to strong by IC50 (human V1a receptor), led by results:

| IC50 (human V1a receptor) [nM] | ratio IC50 hV2/hV1a (human V1a receptor) | IC50 (human V2 receptor) [nM] | SMILES |
| --- | --- | --- | --- |
| 0.99 | 3.7 | 3.63 | C[C@H](OC(N)=O)c1nc(Cn2nc(-c3ccc(Cl)cc3)n(C[C@H](O)C(F)(F)F)c2=O)nn1-c1ccccc1Cl [Example 33, (1S)-1-[1-(2-Chlorophenyl)-3-({3-(4-chlorophenyl)-5-oxo-4-[(2S)-3,3,3-trifluoro-2-hydroxypropyl]-4,5-dihydro-1H-1,2,4-triazol-1-yl}methyl)-1H-1,2,4-triazol-5-yl]ethyl Carbamate] |
| 0.94 | 7.9 | 7.42 | C[C@@H](OC(N)=O)c1nc(Cn2nc(-c3ccc(Cl)cc3)n(C[C@H](O)C(F)(F)F)c2=O)nn1-c1ccccc1Cl [Example 31, (1R)-1-[1-(2-Chlorophenyl)-3-({3-(4-chlorophenyl)-5-oxo-4-[(2S)-3,3,3-trifluoro-2-hydroxypropyl]-4,5-dihydro-1H-1,2,4-triazol-1-yl}methyl)-1H-1,2,4-triazol-5-yl]ethyl Carbamate] |
| 0.51 | 20.3 | 10.3 | C[C@@H](OC(N)=O)c1nc(Cn2nc(-c3ccc(Cl)cc3)n(C[C@H](OC(N)=O)C(F)(F)F)c2=O)nn1-c1ccccc1Cl [Example 32, (2S)-3-[1-({5-[(1R)-1-(Carbamoyloxy)ethyl]-1-(2-chlorophenyl)-1H-1,2,4-triazol-3-yl}methyl)-3-(4-chlorophenyl)-5-oxo-1,5-dihydro-4H-1,2,4-triazol-4-yl]-1,1,1-trifluoropropan-2-yl Carbamate] |
| 0.43 | 6.0 | 2.57 | NC(=O)OCc1nc(Cn2nc(-c3ccc(Cl)cc3)n(C[C@H](O)C(F)(F)F)c2=O)nn1-c1ccccc1Cl [Example 28, [1-(2-Chlorophenyl)-3-({3-(4-chlorophenyl)-5-oxo-4-[(2S)-3,3,3-trifluoro-2-hydroxypropyl]-4,5-dihydro-1H-1,2,4-triazol-1-yl}methyl)-1H-1,2,4-triazol-5-yl]methyl Carbamate] |
